Ki and IC50 data for two compounds are collected here from PMC11909086, “Synthesis and characterization of novel bis(thiosemicarbazone) complexes and investigation of their acetylcholinesterase and glutathione S-transferase activities with in silico and in vitro studies” (Molecular Diversity, 2024).

In assay [1] the target is T1, GST (glutathione S-transferase).
T1 construct: PDB 7BIB is only the docking model
Kind of assay: CDNB-GSH conjugation, […] nm, Lineweaver–Burk. In kind it is biochemical. Conditions: CDNB and GSH, phosphate pH […].

Assay [2] shares this target. Kind of assay: CDNB-GSH conjugation, […] nm (Habig). It is filed as biochemical. The settings on record: CDNB and GSH, phosphate pH […].

`C=C(CC)C(=O)c1ccc(OCC(=O)O)c(Cl)c1Cl` [Ethacrynic acid, reference compound]: in assay [1], the Ki (usually a measure of affinity in units of concentration, obtained from inhibition or displacement) was 9.39 ± 3.3 µM. For the same compound, in assay [2], the IC50 (in general, the concentration that inhibits the measured activity by half) is 0.374 µM.
On the same counts, the results for `COc1ccc(NN=C2C(=NNC(N)=S)CCCC2=NNC(N)=S)cc1` [L, 2,2′-(2-(2-(4-methoxyphenyl)hydrazineylidene)cyclohexane-1,3-diylidene)bis(hydrazine-1-carbothioamide)] are 11.7 ± 5.45 µM and 2.19 µM.
